Patent US20240050513A1, “COMPOSITION FOR PREVENTING, AMELIORATING, OR TREATING DISEASE CAUSED BY PROTEIN NITRATION […] WITH TERMINAL TYROSINE AS EFFECTIVE COMPONENT” (INDUSTRY-ACADEMIC COOPERATION FOUNDATION GYEONGSANG …, priority 2021, published 2024)
Like-named read-outs stand apart in the source and are kept apart here.

Legend:
[1] = tested on: chronic immobilization stress C57BL/6 mice; details: stress group, peptide diet vs normal diet
Experimental: A total of 28 male C57BL/6 mice at 7 weeks of age were divided into two groups: a control group (CTL) and a stress group (STR). The stress group was subjected to chronic immobilization stress for 15 days. Specifically, each mouse in the stress group was individually placed in a restrainer for 2 hours daily from […] to induce chronic immobilization stress. The control group (CTL) and stress group (STR) were further classified based on their diets. […] After the completion of the 15-day chronic immobilization stress, the mice were subjected to a sucrose preference test (SPT). Blood samples and prefrontal cortex (PFC) tissues were collected from the mice for subsequent test.
For the analysis of anti-depressive effect, blood and PFC tissues were collected from mice that underwent chronic immobilization stress. The blood collected from mice was centrifuged at 1,000×g for 10 minutes at 4° C. to separate the plasma, and the supernatant was collected and diluted 1/20 with PBS to prepare a sample. The corticosterone concentration in the plasma was then measured using the Corticosterone EIA kit (Cayman) by following the manufacturer's instructions.
In addition, the plasma diluted with PBS at a ⅓ ratio and the PFC tissue lysate (50 μg) were prepared. The ROS/RNS (reactive oxygen species/reactive nitrogen species) level in the plasma and PFC tissues was measured using the ROS/RNS assay kit (Cell Biolabs) according to the manufacturer's instructions.
In addition, the depression was evaluated by measuring the sucrose preference of mice that had undergone 15 days of chronic immobilization stress. The sucrose preference test was conducted over a total of 4 days. Equal amounts of 0.1 M sucrose solution and water were provided in identical bottles of the same size and shape. On the first day, mice were given access to 0.1 M sucrose solution and water for 24 hours. On the second day, the positions of the sucrose solution and water bottles were switched, and mice were given access for 24 hours. On the third day, no sucrose solution or water was provided. On the fourth day, mice were again given access to equal amounts of 0.1 M sucrose solution and water for 3 hours, the positions were then switched, and access was provided for another 3 hours. The amount of sucrose solution and water consumed during the 6-hour period on the fourth day was measured, and the sucrose preference (%) was calculated according to the following formula.
Sucrose preference (%)=Sucrose intake amount/(Water intake amount+Sucrose intake amount)×100

[2] = tested on: glutamine synthetase (GS); experiment: Hippocampal glutamine synthetase activity in kainic acid epileptic seizure model
Experimental: Kainic acid (KA) was dissolved in saline by heating in a water bath, resulting in a 4.5 mg/ml KA solution. The resulting KA solution was then intraperitoneally injected at a dose of 36 mg/kg, and seizure level and symptoms were recorded for 2 hours. The brain tissues (prefrontal cortex and hippocampus) of the mice that survived 16 hours or 5 days after the KA injection were collected.
To a 96-well plate, 2 μl of hippocampal homogenate was added, and 50 μl of 50 mM imidazole-HCl buffer (pH 6.8) were added to adjust the volume to 50 μl. Then, 50 μl of GS assay buffer (50 mM imidazole-HCl, pH 6.8, 25 mM L-glutamine, 12.5 mM hydroxylamine, 12.5 mM sodium arsenate, 1 mM MnCl2, and 0.08 mM ADP) were added and the reaction was allowed to occur at 37° C. for approximately 40 minutes. […] To terminate the reaction, 100 μl of stop solution (90 mM FeCl3, 1.8 N HCl, and 1.45% w/v trichloroacetic acid) were added to both the samples and the standard substance, and the absorbance was measured at 560 nm. The GS activity in each sample was determined by comparing it with the standard curve. GS activity was expressed as the generation amount of γ-glutamylhydroxamate, which is produced as a final product, and described in unit of μM/min/μg protein.

[3] = tested on: high-fat diet C57BL/6 mice
Experimental: Three-week-old male C57BL/6 mice were purchased from Koatech and housed in the animal facility under controlled conditions of temperature (22±2° C.), humidity (50±5%), and a 12-hour light-dark cycle. Two mice were housed per a cage. […] The mice were maintained on their respective diets for a duration of 17 weeks.
With an interval of one week, the body weight and food intake of each animal were measured. Additionally, at 1, 5, or 8 weeks after the start of the experiment, fasting blood glucose level was measured using an Accu-Check glucose meter.
At 15 weeks after the start of the test, a glucose tolerance test (GTT) was performed, and at 16 weeks, an insulin tolerance test (ITT) was carried out. For the
GTT, after a 12-hour fasting period, a glucose solution of 2 g/kg was administered through intraperitoneal injection, and blood samples were collected from the vein at 0, 20, 60, 90, and 120 minutes to measure blood glucose level. For the ITT, after a 6-hour fasting period, insulin at a dose of 0.75 U/kg was administered through intraperitoneal injection, and blood samples were collected from the vein at 0, 15, 30, 60, and 120 minutes to measure blood glucose level.
The urine volume (ml) was measured by collecting urine from the metabolic cages over a 16-hour period, and the fat mass was measured for each mouse using the EchoMRITM device and expressed as a percentage (%) of body weight.
The insulin concentration was measured using an ELISA kit (Crystal Chem, Ultra-Sensitive Mouse Insulin ELISA Kit), and the alanine aminotransferase (ALT) concentration was measured using an assay kit (IVD Lab Co., ChemiLab GPT (ALT) assay kit). Additionally, the concentration of reactive oxygen species/reactive nitrogen species (ROS/RNS) was measured by using an assay kit (Cell Biolabs, Inc., OxiSelect™ In Vitro ROS/RNS Assay Kit).
After anesthesia, liver tissues were dissected and rapidly frozen in liquid nitrogen. Some tissues were fixed in 10% formalin, and 5 μm-thick tissue slides were prepared from paraffin blocks. The tissues were then stained with H&E (hematoxylin and eosin) and observed under a microscope (Olympus, CKX41) for imaging.
A decrease in insulin receptor in muscles in metabolic disorders reduces the sensitivity to insulin signal, thus limiting the ability to utilize glucose in the muscles to cause sarcopenia. The liver tissue was homogenized in RIPA buffer, and protein quantification was performed using the BCA method. Western blot analysis was then conducted using an anti-insulin receptor-beta (IRβ) antibody.
It is known that a decrease in renal function leads to an increase in the concentration of albumin and a decrease in creatinine in urine. Therefore, the albumin and creatinine levels in urine were measured using mouse albumin ELISA kit (Abcam) and creatinine assay kit (Abcam), respectively, in each test animal. The albumin/creatinine ratio was then calculated. Additionally, 10 μL of blood plasma or 40 mg of homogenized liver tissue were subjected to centrifugation at 10,000 g for 10 minutes, and the supernatant was separated to measure the triglycerides (TG) level in plasma or liver by using a triglyceride measurement kit (Cayman).

tyrosine-glutamine [YQ]
ROS/RNS level in PFC tissue [1]: decreased | sucrose preference [1]: increased | activity of glutamine synthetase ([2]; kainic acid-treated animals, YQ i.p vs normal diet): statistically significantly increased | activity of the glutamine synthetase in the hippocampal tissue ([2]; survived mice after kainic acid, 3xYQ): increased | fasting blood glucose level ([3]; HFD+1xYQ vs HFD, 1, 5 or 8 weeks): decrease in blood glucose level | body weight ([3]; HFD+3xYQ vs HFD): lower body weight | fat mass ([3]; HFD+3xYQ vs HFD): decrease | fasting blood glucose level ([3]; HFD+3xYQ vs HFD, 1, 5 or 8 weeks): decrease in blood glucose level | blood glucose level, glucose tolerance test (GTT) ([3]; HFD+3xYQ vs HFD, 15 weeks): decrease in blood glucose level | urine volume ([3]; HFD+3xYQ vs HFD, 16-hour collection): decrease | blood glucose level, insulin tolerance test (ITT) ([3]; HFD+3xYQ vs HFD, 16 weeks): decrease in blood glucose level | expression level of IRβ ([3]; liver tissue, Western blot, HFD+3xYQ vs HFD): increase
